According to patent US20250002446A1, “Acetoacetate Based Ketals” (ARXADA AG, priority 2021, published 2025):

Test: Acetal cleavage in simulated gastric fluid (SGF)
Format: physicochemical
Settings: 35-37° C., EtOAc extract analyzed by thin layer chromatography
Experimental: Acetal cleavage in simulated gastric fluid (SGF): propane-1,2,3-triyl tris(2-(2,4-dimethyl-1,3-dioxan-2-yl)acetate) (1 g, 2 mmol, 1 eq) was mixed with simulated gastric fluid (SGF) (5 g, 5 rel. eq.) at 35-37° C. After 30 min, 1 h and 2 h the mixture was sampled and extracted with EtOAc.

CC1CCOC(C)(CC(=O)OCC(COC(=O)CC2(C)OCCC(C)O2)OC(=O)CC2(C)OCCC(C)O2)O1 (centres unmarked) [propane-1,2,3-triyl tris(2-(2,4-dimethyl-1,3-dioxan-2-yl)acetate)]
hydrolysis to 1,3-butanediol and propane-1,2,3-triyl tris(3-oxobutanoate) (after 30 min): a majority of the product had hydrolyzed
hydrolysis to 1,3-butanediol and propane-1,2,3-triyl tris(3-oxobutanoate) (after 1 h): hydrolyzation was complete
